{
  "source": "patent US20080003438A1",
  "about": "“Heterocyclic siloxanes for use in biocidal coatings and materials” (Auburn University, priority 2002, published 2008)",
  "key": {"[1]": {"test_system": "Proteus mirabilis bacteria", "assay": "Odor control: ammonia in head space above inoculated wood pulp pads", "type": "cell-based", "conditions": "coated, chlorinated wood pulp pads, 37° C., six hours", "experimental": "3-triethoxysilylpropyl-5,5-dimethylhydantoin, prepared as described in Example 1, was used to treat non-woven pads consisting of 1 gram of a wood pulp matrix such as is used in diapers and incontinence products. A 5% solution prepared in a distilled water and ethanol 1:1 mixture was applied to pads of the wood pulp fibers, and they were then left to soak for 5 minutes. Excess solution was vacuum suctioned from the pads, which were then dried in an oven at 90° C. for two hours. Untreated pads were also subjected to exposure to water and ethanol as controls, and were similarly dried.\nDried coated test samples and uncoated control pads were then treated by exposure to 10% sodium hypochlorite solution for 15 minutes, after which they were rinsed exhaustively with distilled water, and then vacuum dried to remove any unbound, free chlorine. Additional control pads consisted of wood pulp coated with 3-triethoxysilylpropyl-5,5-dimethylhydantoin but not exposed to the hypochlorite bleach charge. […]\nAll test and control pads were then exposed to an inoculum designed to generate ammonia odor as a result of bacterial action on urine, simulating events in an infant or adult human diaper. […] At the end of this period the samples were removed from the incubator, and the amount of ammonia gas in the head space above each pad was measured as an indicator of the degree of odor generated in the urine. […]"}, "[2]": {"test_system": "Candida albicans (ATCC # 102301)", "assay": "Anti-yeast activity of halogen charged coated surfaces", "type": "cell-based", "experimental": "Soft and hard surfaces were treated by exposure to solutions of 3-triethoxysilylpropyl-5,5-dimethylhydantoin prepared as described in Example 1. Challenge inocula for determination of activity directed against yeasts consisted of suspensions of Candida albicans (ATCC # 102301) harvested from PDA plates. Procedures for preparation of halogen charged surfaces, plates, and the exposure of test articles were as described in Example 11. Recovery of viable Candida was accomplished by the plate dilution method on PDA."}, "MS2 phage": {"test_system": "MS2 phage", "assay": "Antiviral activity of chlorinated coated surfaces, modified AATCC Method 100-1998", "type": "cell-based, MS2 virus", "experimental": "Soft and hard surfaces were treated by exposure to a solution of 3-triethoxysilylpropyl-5,5-dimethylhydantoin, as prepared in Example 1, and then halogenated with hypochlorite bleach, prior to being exposed to a challenge inoculum of a virus (MS2 phage). […] Soft surfaces used in these experiments were swatches of woven cotton textiles, and slabs cut from a standard kitchen sponge. Hard surfaces used were porcelain and marble tiles.\nFor the preparation of antimicrobial textiles, fabric and sponge samples were immersed in 5% solution of 3-triethoxysilylpropyl-5,5-dimethylhydantoin and dried in a convection oven at 90° C. for two hours. Chlorination of the coated cellulose materials was accomplished by placing them in the wash chamber of a standard, household washing machine, and processing them through a normal, cold water small load cycle, with one rinse. The washing solution contained 100 mL of CLOROX ULTRA (sodium hypochlorite) per load. […] Chlorine contents were calculated and expressed as ppm Cl^+. […]\nHard surface samples were exposed to the 3-triethoxysilylpropyl-5,5-dimethylhydantoin by using a sponge soaked in the 5% solution, before transfer to a drying oven at 90° C. for two hours. […] Chlorine bound to hard surfaces was determined by iodometric/thiosulfate titration, and chlorine contents were expressed as μg Cl^+ per square cm. […]"}, "[3]": {"test_system": "spores of Aspergillus niger (ATCC # 1004)", "assay": "Antifungal activity of chlorinated coated surfaces", "type": "cell-based", "experimental": "Soft and hard surfaces were treated by exposure to a solution of 3-triethoxysilylpropyl-5,5-dimethylhydantoin, prepared as described in Example 1. The soft surfaces used for detection of antifungal properties were woven textiles composed of fibers of polypropylene, cotton (cellulose), polyester, rayon, and slabs from a cellulose kitchen sponge. Hard surfaces prepared were polyvinylchloride (PVC) sheets, and porcelain and marble tiles. Challenge inocula of prepared surfaces consisted of aliquots of stock suspensions of spores of Aspergillus niger (ATCC # 1004), a black mold, harvested from cultured lawns on Potato Dextrose Agar (PDA) plates. Methods for preparation of the halogen charged surfaces and protocols for challenge were as described in Example 11. In this case recovery of Aspergillus was accomplished by the plate dilution method on PDA, and the results were expressed as log 10 reductions compared to the controls. Contact times varied from 24-72 hours, considerably longer than was allowed for other organisms because of the well established durability of black mold spores under a wide range of physical and chemical conditions."}},
  "data": [
    {"smiles": "CCO[Si](CCCN1C(=O)NC(C)(C)C1=O)(OCC)OCC", "note": "[3-triethoxysilylpropyl-5,5-dimethylhydantoin]", "values": [
      {"measurement": "odor detected by the human nose", "setting": "[1]", "result": "no detectable odor whatsoever"},
      {"measurement": "ammonia in the head space above the pads", "setting": "[1]; urine + urea + P. mirabilis, lower limit of detection 0.25 ppm", "result": "< 0.25", "unit": "ppm"},
      {"measurement": "reduction in viable yeasts", "setting": "[2]; cotton surfaces, two hours of contact", "result": 5, "unit": "logs"},
      {"measurement": "reduction in viable yeasts", "setting": "[2]; hard surfaces, 6 hours of contact", "result": "up to 4 logs"},
      {"measurement": "reduction in viable yeasts", "setting": "[2]; polyester, 24 hours", "result": 4, "unit": "logs"},
      {"measurement": "Log 10 reduction of MS2 titer", "setting": "MS2 phage; cellulose substrates (textile and sponge), 24 hours of contact", "result": "approximately 4 logs"},
      {"measurement": "Log 10 reduction of MS2 titer", "setting": "MS2 phage; hard surfaces, contact times of as little as 6 hours", "result": "approximately 2 logs"},
      {"measurement": "log 10 reduction in mold concentration", "setting": "[3]; cotton, contact 24 hours", "result": 8, "unit": "logs"},
      {"measurement": "log 10 reduction in mold concentration", "setting": "[3]; marble, 72 hours after spore inoculation", "result": 4, "unit": "log"},
      {"measurement": "log 10 reduction in mold concentration", "setting": "[3]; porcelain, 72 hours after spore inoculation", "result": 5, "unit": "log"},
      {"measurement": "log 10 reduction in mold concentration", "setting": "[3]; sponge slabs, contact 24 hours", "result": 4, "unit": "log"},
      {"measurement": "log 10 reduction in mold concentration", "setting": "[3]; synthetic fibers (polypropylene, polyester), 72 hours of contact", "result": 5, "unit": "logs"},
      {"measurement": "log 10 reduction in mold concentration", "setting": "[3]; vinyl, 72 hours after spore inoculation", "result": 4, "unit": "log"}
    ]}
  ]
}
